Measurements from US20250120905A1, “THERAPEUTIC AGENTS TARGETING THE LYMPHATIC SYSTEM” (VIVASOR, INC, priority 2021, published 2025).

Experiments:
[1] = system: patients with moderately to severely active Rheumatoid Arthritis (RA); test: Phase 1b study of Enbrel administered by SOFUSA: ACR response; type: in vivo, human; conditions: week 10 vs baseline (week 0); Patient 01-002 and Patient 01-004; SOFUSA Enbrel 25 mg once weekly
Source text: (§1) An exemplary Sofusa Lymphatic Delivery System (SOFUSA) was designed to access the lymphatic system directly through the skin at the epidermal/dermal boundary (See FIG. 1) such that the infusion accessed afferent lymphatic capillaries when employed as described in Examples 2 and 3, below. The exemplary SOFUSA system was comprised of a microneedle device (see, e.g., FIG. 3A) and a syringe pump configured to administer anti-arthritic therapeutic agent, such as Enbrel, into the lymphatic circulation through the skin. This configuration was optimized to provide flow rates and pharmacokinetics using lymphatic anti-arthritic drug delivery in early phase clinical trials. The exemplary SOFUSA device was attached to the body of subjects via an attachment system that domed the skin upwards for consistent microneedle penetration, and a nylon strap with Velcro® that comfortably held the device down on the skin, keeping the microneedles in position until the dosing was complete (See, e.g., FIG. 2). Dose volume and infusion rate were set with an infusion pump (See, e.g., FIG. 2).
SOFUSA microneedles were arranged into an array and placed on the skin using a mechanical impact applicator. […]

[2] = Etanercept lymph node concentrations after IV, SC, ID or lymphatic (Sofusa) delivery; type: in vivo; conditions: for etanercept concentration in lymph nodes, lymphatic (Sofusa) vs IV administration: percentage initial dose per gram of lymph tissue
Description: Etanercept was administered to subjects either via intravenous (IV), subcutaneous (SC), Intradermal (ID), or lymphatic (Sofusa) delivery. Average etanercept concentrations (expressed as percentage initial dose per gram of lymph tissue) in lymph node tissue was then determined at twelve and 36 hours post-administration. […] In particular, etanercept concentrations at 12 hours post lymphatic (Sofusa) administration were approximately 40-fold greater, and approximately 9-fold greater at 36 hours, than etanercept concentrations administered via IV.
Methods and procedures for some of these experiments have been adapted from Aldrich, et al., Arthritis Res. Ther., (2017), 19:116 (DOI 10.1186/s13075-017-1323-z; Open Access) which is incorporated by reference herein in its entirety for all purposes.

patients with RA = conditions: cited from earlier work
[3] = system: patients with moderately to severely active Rheumatoid Arthritis (RA); test: Phase 1b study of Enbrel administered by SOFUSA: tender and swollen joint counts; type: in vivo, human
Source text: as §1
(§2) SOFUSA microneedles were arranged into an array and placed on the skin using a mechanical impact applicator. A solution comprising Enbrel at a concentration of approximately 50 milligrams per milliliter (50 mg/mL) was then administered at a controlled infusion rate into the device, through the microneedles and into the skin using an external syringe pump. The solution comprising Enbrel was delivered into the body at an infusion rate of 0.5 milliliters per hour (mL/hr), which corresponded to an infusion period of one hour to deliver a 25 mg dose and 2 hours to deliver a 50 mg dose.
(§3) In this ongoing Phase 1b study, 25 mg of Enbrel (50% of the non-SOFUSA delivered subcutaneous dose) was administered lymphatically once weekly via SOFUSA to patients for 12 weeks. The study design calls for an increase in the SOFUSA-administered Enbrel dose to 50 mg during the dose escalation phase of the study (weeks 4-8) provided that dose escalation criteria are met. Patients remain on either the 25 mg or 50 mg dose for the final maintenance phase of the study. The dose escalation criteria for the Enbrel dose to be increased from 25 mg to 50 mg are: a DAS28 (ESR)≥3.2 and an increase in DAS28 (ESR)>0.6 compared to baseline.
(§4) Patients entered in the study had been treated with subcutaneous Enbrel with or without continuation of MTX, and have had either a primary (lack of sufficient efficacy with initial treatment) or secondary (initial efficacy but became inefficacious over time) inadequate response with the maximum approved dose of Enbrel. […] To the extent that inadequate response to Enbrel in some patients may be due to insufficient Enbrel levels in target lymphoid tissues or an inadequate immunologic response, Enbrel administered into the lymphatic system via SOFUSA was therefore theorized to provide a favorable clinical response despite an inadequate response to subcutaneous Enbrel administration.
(§5) This patient received SOFUSA-administered Enbrel at a 25 mg dosage once weekly for 12 weeks. Each week, SOFUSA was applied to the dorsal forearm with alternating left and right arm locations and the SOFUSA-administered Enbrel solution was infused through the skin into the lymphatic circulation for one hour.
Joint counts were performed every 2 weeks. There was observed a consistent decrease in the number of tender and swollen joints using both 66/68 and 28 joint count criteria for the entire 12-week dosing period (See FIG. 5A and FIG. 5B, respectively).

[4] = system: patients with moderately to severely active Rheumatoid Arthritis (RA); test: Phase 1b study of Enbrel administered by SOFUSA: patient/physician disease activity and pain Visual Analog Scale; type: in vivo, human; conditions: for Patient Assessment of Pain (VAS) decrease / Patient Global Assessment of Disease Activity (VAS) decrease / Physician Global Assessment of Disease Activity (VAS) decrease: SOFUSA Enbrel 25 mg once weekly for 12 weeks
Source text: as §1, §2, §3, §4, §5
Ratings were performed by each patient and physician on a Visual Analog Scale (VAS) every 2 weeks for disease activity (patient and physician) and disease-related pain (patient). […] In addition, the Patient Assessment of Pain for Patient ID 01-002 decreased from 46 mm at week 0 to 29 mm at week 12 (i.e., 37.0% decrease). The Physician Global Assessment of Disease Activity for Patient ID 01-002 decreased substantially from 50 mm at week 0 to 15 mm at week 12, corresponding to a 70.0% decrease in disease activity.

[5] = system: patients with moderately to severely active Rheumatoid Arthritis (RA); test: Phase 1b study of Enbrel administered by SOFUSA: DAS28 (ESR/CRP) disease activity scores; type: in vivo, human; conditions: Patient 01-004; SOFUSA Enbrel 25 mg once weekly; indicative of remission
local lymphatic function = test: Near-Infrared Fluorescence (NIRF) lymphatic imaging with Indocyanine Green; type: in vivo, human
Description: The local lymphatic function was measured using Near-Infrared Fluorescence (NIRF) imaging techniques with Indocyanine Green (ICG) at the beginning, at 6 weeks, and at the end of the study. […] The ICG was delivered at the opposite arm location as the Enbrel dosing.
In this regard, it has been speculated that lymphatic dysfunction may encourage the development of rheumatic autoimmune diseases such as scleroderma, lupus, and rheumatoid arthritis (see, e.g., Aletaha, D., et al., Ann. Rheum. Dis., 75, 1479-1485 (2016)). […] NIRF imaging of the lymphatics after infusion of a solution of ICG at the beginning, middle and end of the study. NIRF imaging was used to assess lymphatic pumping in RA patients before and after treatment with SOFUSA with Enbrel. Additionally, the imaging provided a visualization of the lymphatic vessels and was intended to confirm that SOFUSA delivers ICG solution directly into the lymphatics.

[6] = system: patients with moderately to severely active Rheumatoid Arthritis (RA); test: Phase 1b study of Enbrel administered by SOFUSA: DAS28 (ESR/CRP) disease activity scores; type: in vivo, human; conditions: Patient ID 01-002
Source text: as §1, §2, §3, §4, §5
Disease Activity Scores (DAS) 28 (DAS28) DAS28) were calculated based on 28 tender and swollen joints, Patient Global Assessment of Disease Activity, and C-Reactive Protein (CRP) or Erythrocyte Sedimentation Rate (ESR). DAS28 (ESR) and DAS28 (CRP) scores for Patient ID 01-002 are shown in FIG. 4A and FIG. 4B, respectively.

[7] = Patient 01-002, by week 12 of the study
[8] = Patient ID 01-002 (FIG. 5), week 0 to week 12, SOFUSA Enbrel 25 mg once weekly
[9] = Patient ID 01-004, SOFUSA Enbrel 25 mg once weekly for 12 weeks
[10] = Patient ID 01-006, SOFUSA Enbrel 25 mg once weekly for 12 weeks
[11] = Patient ID 01-002, SOFUSA Enbrel 25 mg once weekly
[12] = Patient ID 01-002, before SOFUSA dosing
[13] = Patient ID 01-002, week 0 to week 12, SOFUSA Enbrel 25 mg once weekly
[14] = before SOFUSA dosing, inadequate response to weekly 50 mg Enbrel subcutaneous

## etanercept [Enbrel]
[1]
  ACR 50% response: achieved
[2]; 12 and 36 hours post-administration, FIG. 12
  etanercept concentration in lymph nodes, lymphatic delivery compared to all other tested delivery routes (IV, SC, ID): far greater
[2]; 12 hours post administration
  etanercept concentration in lymph nodes, lymphatic (Sofusa) vs IV administration: approximately 40 fold
[2]; 36 hours post administration
  etanercept concentration in lymph nodes, lymphatic (Sofusa) vs IV administration: approximately 9 fold
Patients with RA; Enbrel in combination with MTX, delivered systemically
  efficacy response rate, ACR70: < 50%
Patients with RA; Enbrel plus MTX, at 3 and 6 months, Enbrel prescribing information
  patients achieving ACR70: 15%
[3]; [7]
  SJC66 decrease (ACR response section): 55.6%
  TJC68 decrease (ACR response section): 58.8%
[3]; [8]
  decrease in number of swollen joints, 28-Joint Count: 28.6%
  decrease in number of swollen joints, full 66-Joint Count: 44.4%
  decrease in number of tender joints, 28 Joint Count: 90.9%
  decrease in number of tender joints, full 68-Joint Count: 70.6%
[3]; [9]
  SJC66 decrease: 66.7%
  TJC68 decrease: 60.0%
[3]; [10]
  SJC66 change: unchanged
  TJC68 decrease: 70.6%
[4]; [7]
  Patient Assessment of Pain (VAS) decrease (ACR response section): 69.6%
  Patient Global Assessment of Disease Activity (VAS) decrease (ACR response section): 63.5%
  Physician Global Assessment of Disease Activity (VAS) decrease (ACR response section): 50.0%
[4]; [11]
  Patient Assessment of Pain (VAS) at week 12: 29 mm
  Patient Global Assessment of Disease Activity (VAS, 100 mm) at week 12: 21 mm
  Physician Global Assessment of Disease Activity (VAS) at week 12: 15 mm
[4]; [12]
  Patient Assessment of Pain (VAS) at week 0: 46 mm
  Patient Global Assessment of Disease Activity (VAS, 100 mm) at week 0: 52 mm
  Physician Global Assessment of Disease Activity (VAS) at week 0: 50 mm
[4]; [13]
  Patient Assessment of Pain, decrease: 37.0%
  Patient Global Assessment of Disease Activity, overall reduction: 59.6%
  Physician Global Assessment of Disease Activity, decrease: 70.0%
[4]; Patient ID 01-004
  Patient Assessment of Pain (VAS) decrease: 100.0%
  Patient Global Assessment of Disease Activity (VAS) decrease: 46.7%
  Physician Global Assessment of Disease Activity (VAS) decrease: 85.4%
[4]; Patient ID 01-004, week 10 of the study
  Patient Global Assessment of Disease Activity (VAS) decrease at week 10: 73.3%
[4]; Patient ID 01-006
  Patient Assessment of Pain (VAS) decrease: 98.9%
  Patient Global Assessment of Disease Activity (VAS) decrease: 97.1%
  Physician Global Assessment of Disease Activity (VAS) decrease: 75.4%
[5]
  DAS28 (ESR) at week 10: 2.10
Local lymphatic function; week 0, before SOFUSA treatment, ICG at opposite arm
  lymphatic pump rate at week 0: less than 0.5 pumps per minute
Local lymphatic function; week 6, after 6 SOFUSA Enbrel doses, vs week 0 (very few vessels visible)
  lymphatic vessels visible by NIRF imaging at week 6: significantly more lymphatic vessels could be imaged
Local lymphatic function; week 6, after 6 SOFUSA Enbrel doses, ICG at opposite arm
  lymphatic pump rate at week 6: greater than 2 pumps per minute
[6]; SOFUSA Enbrel 25 mg once weekly, baseline 4.58
  DAS28 (ESR) at week 12: 3.02
[6]; SOFUSA Enbrel 25 mg once weekly, baseline 4.99
  DAS28 (CRP) at Week 12: 3.12
[6]; SOFUSA Enbrel 25 mg once weekly, week 12 vs baseline 4.58
  DAS28 (ESR) decrease from baseline: 34.1%
[6]; SOFUSA Enbrel 25 mg once weekly, week 12 vs baseline 4.99
  DAS28 (CRP) decrease from baseline: 37.5%
[6]; after 10 weekly 25 mg SOFUSA Enbrel doses, level of remission
  DAS28 (ESR) at Week 10 (lowest achieved): 2.10
[6]; [14]
  DAS28 (CRP) at baseline: 4.99
  DAS28 (CRP) at screening: 4.94
  DAS28 (ESR) at baseline: 4.58
  DAS28 (ESR) at screening: 4.62
